According to US20240423953A1, “METHODS AND COMPOSITIONS FOR TARGETING SV2 PROTEINS FOR IMMUNE REGULATION” (THE REGENTS OF THE UNIVERSITY OF CALIFORNIA, priority 2021, published 2024):
Entries after “also recorded” stand apart in the source; their conditions may differ.

Experiments:
ST2L [1] = test: ST2L protein stability in primary MEFs treated with CHX (immunoblot, flow cytometry); assay type: cell-based, mouse
Procedure: (§1) Primary mouse embryonic fibroblast cells (MEFs) were prepared as previously described^35. Briefly, mouse embryos were collected around embryonic day 14. Visible organs such as the brain, liver, and spleen were removed, and the leftover tissue was quickly minced and incubated in 0.25% trypsin-EDTA for 2 hr at 37° C. Cells were then washed with media and seeded in DMEM with 10% FBS, 1% penicillin/streptomycin and 0.055 mM β-mercaptoethanol. Every three days cells were passaged. Starting at passage 2, cells were used for studies.
Dead cells were routinely excluded with Zombie UV Fixable Viability Kit (BioLegend) or Fixable Aqua Dead Cell Stain (Thermo Fisher Scientific). Lineage-positive cells were excluded by staining for B220 (RA3-6B2), […] (145-2C11), TCRβ (H57-597), TCRγδ (eBioGL3), Ter119 (Ter119), NK1.1 (PK136), CD11b (M1/70), and CD11c (N418). For surface staining CD45 (30-F11), KLRG1 (2F1), CD25 (PC61.5), CD127 (A7R34), Sca1 (D7), Thy1/CD90.2 (53-2.1), and ST2 (RMST2-2, eBioscience) were used. For intracellular staining, cells were fixed and permeabilized with the Transcription Buffer Set (BD Pharmingen) per manufacturer's instructions followed by staining with anti-GATA3 (TWAJ, eBioscience), anti-IL-5 (TRFK5, Biolegend) and anti-IL-13 (eBio13A, eBioscience). Stained cells were used for flow cytometry analysis using a LSRII or Attune NxT (Becton Dickinson, BD) flow cytometer. Data were analyzed using the FlowJo software. Different cell types were identified by the following gating strategies^36,37: lung ILC2s (CD45^+Lin KLRG1^+CD90^+ or CD45^+Lin GATA3^+CD90^+CD25^+), BM ILC2P (CD45^+Lin^− CD127^+CD25^+).
(§2) Protein extracts from cells or tissues were prepared using whole protein lysis buffer (WL buffer) containing 50 mM Tris (pH 8), 0.4M NaCl, 0.5% NP-40, 10% glycerol, 1 mM EDTA, 1 mM DTT, and 1 mM PMSF as described previously^39. To extract proteins from MEFs, cells were washed with PBS once and then lysed with WL buffer on ice for 30 min. Lung or brain tissues from mice that had been euthanized and perfused with cold PBS were directly homogenized in the presence of WL buffer or alternatively, tissues were briefly disrupted in PBS and the insoluble fractions were then lysed in WL buffer for protein extraction. Immunoblot analysis was performed using the following antibodies: anti-ST2L (R3880-2, Abiocode), anti-ST2 (M3880-1, Abiocode), anti-SV2A (M3004-1, Abiocode), anti-Tubulin (M0267-1b, Abiocode).

ST2L [2] = test: Immunoblot analysis of ST2L in lungs of LEV-treated mice; assay type: in vivo, mouse; conditions: LEV intranasal for 4 hr or daily for three consecutive days (3D), vs PBS
Excerpt: (§3) Sv2a^+/− mice on C57BL/6 129Sv mixed genetic background^21 were purchased from the Jackson laboratory (B6;129P2-Sv2a^tm1SudSv2b^tm1Sud/J) and were backcrossed to C57 background for at least 5 generations prior to use. Mice were housed under specific-pathogen-free conditions. Sex-matched littermates between 6 and 16 weeks of age were used for experiments if not otherwise indicated. C57BL/6 mice were purchased from the Jackson Laboratory or the UCLA animal core facility. C57BL/6 mice were randomly assigned to treatment groups after matching for sex and age. […] For the IL-33 or papain-induced lung inflammation models, mice were treated intranasally on days 1, 2, and 3. Bone marrows and lungs were harvested, processed, and analyzed on day 4. The inventors were not blinded to allocation during the studies. All studies were conducted in accordance with animal protocols approved by the Animal Research Committee of the University of California Los Angeles.
(§4) Protein extracts from cells or tissues were prepared using whole protein lysis buffer (WL buffer) containing 50 mM Tris (pH 8), 0.4M NaCl, 0.5% NP-40, 10% glycerol, 1 mM EDTA, 1 mM DTT, and 1 mM PMSF as described previously^39. To extract proteins from MEFs, cells were washed with PBS once and then lysed with WL buffer on ice for 30 min. […]

lung ILC2s [3] = test: Papain-induced mouse lung inflammation model, flow cytometry of lung ILC2s; assay type: in vivo; conditions: papain 50 μg + LEV 17 mg/kg intranasal daily day 1, 2, 3; day 4; vs papain alone
Excerpt: as §3
(§5) Mice were euthanized and perfused with cold PBS. […]
(§6) Dead cells were routinely excluded with Zombie UV Fixable Viability Kit (BioLegend) or Fixable Aqua Dead Cell Stain (Thermo Fisher Scientific). […] Data were analyzed using the FlowJo software. […]

SV2A protein [4] = target: T1, SV2A protein (Mus musculus, UniProt Q9JIS5); test: Immunoblot analysis of SV2A protein in lungs and brain of intranasally treated mice; assay type: in vivo
T1 construct: from tissue; host or cells: lung and brain of C57BL/6 mice
Excerpt: as §3, §4

BM ILC2P = test: Flow cytometry analysis of bone marrow ILC2P in LEV-treated mice; assay type: in vivo, mouse; conditions: LEV 17 mg/kg intranasal daily day 1, 2, 3; BM harvested day 4
Excerpt: as §3, §5, §6

SV2A protein [5] = target: T1, SV2A protein; test: Cell-free protein stability assay (lung or brain protein extracts, immunoblot with anti-SV2A); assay type: biochemical
Procedure: Proteins extracts were prepared by incubating WL buffer with brain or lung tissues that had been pre-washed with PBS. […] The reaction mixtures were subsequently incubated at 37° C. for 1 hr, and the reactions were terminated by adding 20 μl of 4×SDS sample buffer followed by denaturing at 95° C. for 5 min. The samples were then analyzed directly by immunoblot analysis.
These two models were tested using the in vitro cell-free protein stability assays. […] We prepared two groups of reaction mixtures by mixing 0.2 μg of brain protein extract from WT mice with an excessive amount of either brain protein extract or lung protein extract prepared from Sv2a^−/− pup.

lung ILC2s [6] = test: Flow cytometry analysis of lung ILC2 responses in LEV-treated naive mice; assay type: in vivo, mouse; conditions: LEV 17 mg/kg intranasal daily day 1, 2, 3
Excerpt: as §3
Mice were euthanized and perfused with cold PBS. Lung lobes were diced into small pieces and incubated with 0.2 mg/mL collagenase P. 0.8 mg/mL Dispase II, 0.1 mg/mL DNase I in RPMI1640 containing 5% FBS for 1 hr at 37° C. before being mashed through […] cell strainers. Bone marrow cells were collected by flushing out the marrow from femurs and tibias using a syringe with PBS. Red blood cells were removed using RBC lysis buffer (Sigma-Aldrich, Cat #: R7757) according to the manufacturer's recommendations followed by 1×PBS wash. After saturating the Fc-receptors with CD16/CD32-blocking antibody (BioLegend), single-cell suspensions were incubated on ice with conjugated antibodies in PBS (Ca^2+ and Mg^2+-free).
Dead cells were routinely excluded with Zombie UV Fixable Viability Kit (BioLegend) or Fixable Aqua Dead Cell Stain (Thermo Fisher Scientific). Lineage-positive cells were excluded by staining for B220 (RA3-6B2), […] (145-2C11), TCRβ (H57-597), TCRγδ (eBioGL3), Ter119 (Ter119), NK1.1 (PK136), CD11b (M1/70), and CD11c (N418). […] Data were analyzed using the FlowJo software. […]

Sv2a mRNA = test: Q-PCR analysis of lung Sv2a gene expression in intranasally treated mice; assay type: in vivo, mouse; conditions: IL-33 100 ng intranasal, 4 hr
Excerpt: as §3, with “For the IL-33 or papain-induced lung inflammation models, mice were treated intranasally on days 1, 2, and 3. Bone marrows and lungs were harvested, processed, and analyzed on day 4.” left out
Quantitative real time polymerase chain reaction (Q-PCR) analyses were performed as described^38. Briefly, cDNA prepared using the iScript cDNA Synthesis kit (Bio-Rad) were analyzed by Q-PCR using the CFX-96 Real-Time Detection System (Bio-Rad). The Q-PCR primer sequences of genes were: Sv2a forward—[…] (SEQ ID NO:2), Sv2a reverse […] (SEQ ID NO:3), St2l forward […] (SEQ ID NO:4), St2l reverse […] (SEQ ID NO:5), sSt2 forward—[…] (SEQ ID NO:6), sSt2 reverse […] (SEQ ID NO:7). Il1rap forward—[…] (SEQ ID NO:8), Il1rap reverse—[…] (SEQ ID NO:9), Il5 forward—[…] (SEQ ID NO:10), Il5 reverse—[…] (SEQ ID NO:11), Il13 forward—[…] […]

Il13 and Il5 = test: Q-PCR analysis of Il13 and Il5 gene induction in primary MEFs treated with IL-33; assay type: cell-based, mouse; conditions: WT MEFs
Procedure: as §1
Quantitative real time polymerase chain reaction (Q-PCR) analyses were performed as described^38. Briefly, cDNA prepared using the iScript cDNA Synthesis kit (Bio-Rad) were analyzed by Q-PCR using the CFX-96 Real-Time Detection System (Bio-Rad). The Q-PCR primer sequences of genes were: Sv2a forward—[…] (SEQ ID NO:2), Sv2a reverse […] (SEQ ID NO:3), St2l forward […] (SEQ ID NO:4), St2l reverse […] (SEQ ID NO:5), sSt2 forward—[…] (SEQ ID NO:6), sSt2 reverse […] (SEQ ID NO:7). Il1rap forward—[…] (SEQ ID NO:8), Il1rap reverse—[…] (SEQ ID NO:9), Il5 forward—[…] (SEQ ID NO:10), Il5 reverse—[…] (SEQ ID NO:11), Il13 forward—[…] (SEQ ID NO:12), Il13 reverse—[…] (SEQ ID NO:13), Hprt forward—[…] (SEQ ID NO:14), Hprt reverse—[…] (SEQ ID NO:15), Gapdh forward—[…] (SEQ ID NO:16), Gapdh reverse—[…] (SEQ ID NO:17).

ST2L [7] = test: Immunoblot analysis of ST2L expression in primary MEFs treated with IL-33; assay type: cell-based, mouse
Procedure: as §1, §2

T1 sequence (Q9JIS5 whole entry): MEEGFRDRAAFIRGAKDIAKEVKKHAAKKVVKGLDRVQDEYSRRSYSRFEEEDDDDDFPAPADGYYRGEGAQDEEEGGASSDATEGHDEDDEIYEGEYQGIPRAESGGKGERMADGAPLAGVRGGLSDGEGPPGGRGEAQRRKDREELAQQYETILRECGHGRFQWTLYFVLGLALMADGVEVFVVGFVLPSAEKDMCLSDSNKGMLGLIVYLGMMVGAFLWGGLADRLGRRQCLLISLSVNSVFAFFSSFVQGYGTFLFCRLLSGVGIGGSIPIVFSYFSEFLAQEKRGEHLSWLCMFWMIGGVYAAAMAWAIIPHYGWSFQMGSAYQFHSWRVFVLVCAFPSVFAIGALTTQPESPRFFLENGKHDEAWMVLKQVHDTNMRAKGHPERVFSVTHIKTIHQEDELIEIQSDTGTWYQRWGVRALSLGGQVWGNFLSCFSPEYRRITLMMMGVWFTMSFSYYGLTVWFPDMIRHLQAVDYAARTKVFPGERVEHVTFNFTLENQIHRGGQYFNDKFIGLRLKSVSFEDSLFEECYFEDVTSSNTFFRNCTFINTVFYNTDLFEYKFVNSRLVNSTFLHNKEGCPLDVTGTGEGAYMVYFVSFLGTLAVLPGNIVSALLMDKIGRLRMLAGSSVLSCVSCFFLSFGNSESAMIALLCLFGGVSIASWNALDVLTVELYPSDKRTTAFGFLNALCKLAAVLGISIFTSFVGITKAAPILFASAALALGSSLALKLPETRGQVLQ

C[C@@H]1C[C@@H]([C@H](O)CC2CC(=O)NC(=O)C2)C(=O)[C@@H](C)C1 [CHX, cycloheximde]
ST2L expression (immunoblot) (ST2L [1]; Sv2a KO MEFs, 6 hr after CHX treatment): no longer detectable
reduction of percentage of ST2+ cells (flow cytometry) (ST2L [1]; Sv2a KO MEFs, CHX 20 hr): more than 15 fold
percentage of ST2+ cells after CHX (ST2L [1]; Sv2a KO MEFs, CHX 20 hr (from 13.7% untreated)): 0.78%
ST2L expression (immunoblot) (ST2L [1]; WT MEFs, 6 hr after CHX treatment): only modestly reduced
ST2L expression (immunoblot) (ST2L [1]; WT MEFs, CHX for 20 hr): remained to be detectable
reduction of ST2+ cells (flow cytometry) (ST2L [1]; WT primary MEFs, CHX 20 hr): about 3 fold
percentage of ST2+ cells after CHX (ST2L [1]; WT primary MEFs, CHX 20 hr (from 20.5% untreated)): 6.35%

CC[C@@H](C(N)=O)N1CCCC1=O [LEV, (S)-(−)-α-ethyl-2-oxo-1-pyrrolidine acetamide]
ST2L protein in the lungs (immunoblot) (ST2L [2]): clear suppression; also recorded: reduced
frequency of lung ILC2s, papain-induced ILC2 responses (lung ILC2s [3]): reducing
production of IL-5 and IL-13 by lung ILC2s, papain-induced (lung ILC2s [3]): blocking
SV2A protein in the brain (immunoblot) (SV2A protein [4]; LEV 17 mg/kg intranasal, C57/BL6 mice): did not reduce
development of BM ILC2P (BM ILC2P): suppressed
degradation of brain SV2A protein with excess lung protein extracts from Sv2a-/- pup (SV2A protein [5]; 0.2 μg WT brain extract, 10 mM LEV): completely degraded
degradation of brain SV2A protein with excess brain protein extracts from Sv2a-/- pup (SV2A protein [5]; 0.2 μg WT brain extract, LEV 0.1 mM, 0.5 mM, 10 mM): did not cause the degradation
SV2A protein in brain extracts (SV2A protein [5]; brain extracts, LEV, similar conditions (37° C.)): failed to reduce
populations of lung ILC2 cells producing IL-13 and IL-5 (lung ILC2s [6]; day 4): suppressed
reduction of the cell numbers of lung ILC2s (lung ILC2s [6]; lungs harvested day 4): about 50%
reduction of the frequency of lung ILC2s (lung ILC2s [6]; lungs harvested day 4): about 50%

B1: IL-33: alarmin cytokine that signals through its receptor ST2; used as stimulus (R&D) (protein, UniProt O95760 1-270, looked up)
Interleukin-33: MKPKMKYSTNKISTAKWKNTASKALCFKLGKSQQKAKEVCPMYFMKLRSGLMIKKEACYFRRETTKRPSLKTGRKHKRHLVLAACQQQSTVECFAFGISGVQKYTRALHDSSITGISPITEYLASLSTYNDQSITFALEDESYEIYVEDLKKDEKKDKVLLSYYESQHPSNESGDGVDGKMLMVTLSPTKDFWLHANNKEHSVELHKCEKPLPDQAFFVLHNMHSNCVSFECKTDPGVFIGVKDNHLALIKVDSSENLCTENILFKLSET
levels of Sv2a mRNA in the lungs (Q-PCR) (Sv2a mRNA): did not suppress
SV2A protein in the lungs (immunoblot) (SV2A protein [4]; IL-33 100 ng intranasal, 4 hr): reduction; also recorded: suppressed
IL33-triggered induction of Il13 and Il5 (Q-PCR) (Il13 and Il5): significantly increased
level of ST2L (immunoblot) (ST2L [7]; Sv2a KO MEFs, IL-33 for 20 hr): dramatic reduction
level of ST2L (immunoblot) (ST2L [7]; WT MEFs, IL-33): not reduced
